Laboratory results taken from patent US20040156930A1, “Treating mouth ulcers with patches to speed healing and relieve pain” (priority 2002, published 2004).

What was measured:
[1] = test system: canker sores (aphthous ulcers); assay: Inventor's trials of oral patches with licorice root extract or amoxicillin on canker sores; format: in vivo, human
Experimental: For medication to be placed in the patch, any of the above-mentioned antimicrobials, or similar antimicrobials, may be used. […] A preferred quantity of licorice extract in each patch that lasts 1 to 6 hours is 20 to 95 milligrams.
In the testing, conventional amoxicillin powder for preparation of oral suspension was used, which includes sugars and other excipients. The sugars act as a binder to the sponge of the oral patch. The oral suspension is massaged into the patch and dried. Preferably, the amoxicillin powder is mixed into a stronger than normal liquid form before being added to the patch.

[2] = test system: canker sores (aphthous ulcers); settings: topical application, reported in literature; cited from earlier work

CC1(C)S[C@@H]2[C@H](NC(=O)[C@H](N)c3ccc(O)cc3)C(=O)N2[C@H]1C(=O)O [amoxicillin]
effectiveness on canker sores ([1]; amoxicillin powder for oral suspension on conventional patches): works quite well | typical duration of each canker sore ([1]; in a patch applied for half of the hours, day and night, typically 10-14 days without treatment): ~2 days | results of treatment of canker sores ([1]; patch keeping medication on or near the sore about half of the hours in a day over 2 days): nearly always effective | results of treatment of canker sores ([1]; troche, gel, paste or liquid applied six times per day for 2 days): nearly always ineffective | healing of canker sores [2]: shown effective

penicillin
healing of canker sores [2]: shown to speed healing of canker sores

N=C(NCCCCCCNC(=N)NC(=N)Nc1ccc(Cl)cc1)NC(=N)Nc1ccc(Cl)cc1.O=C(O)[C@H](O)[C@@H](O)[C@H](O)[C@H](O)CO.O=C(O)[C@H](O)[C@@H](O)[C@H](O)[C@H](O)CO [chlorhexidine gluconate]
healing of canker sores [2]: reported to speed healing of canker sores

CN(C)CCOC(c1ccccc1)c1ccccc1 [diphenhydramine]
healing of canker sores [2]: reported to speed healing of canker sores

OO [hydrogen peroxide]
healing of canker sores [2]: reported to speed healing of canker sores

NC(N)=O.OO [carbamide peroxide]
healing of canker sores [2]: reported to speed healing of canker sores
